Laboratory results published in PubChem BioAssay (NCI).
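Assay format: 96-well plates, 48-hour exposure. GI50 marks 50% less growth. TGI denotes the concentration required for complete inhibition of growth.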

Columns and labels:
Assay in all cases: NCI tumour cell line growth inhibition, 48 h
MDA-MB-435 = test system: MDA-MB-435
SF-295 CNS = test system: SF-295 CNS
HCT-15 colon = test system: HCT-15 colon
OVCAR-5 ovarian = test system: OVCAR-5 ovarian
HL-60(TB) leukemia = test system: HL-60(TB) leukemia
DU-145 prostate = test system: DU-145 prostate
IGROV1 ovarian = test system: IGROV1 ovarian
SW-620 colon = test system: SW-620 colon
CCRF-CEM leukemia = test system: CCRF-CEM leukemia
HOP-92 NSCLC = test system: HOP-92 NSCLC
SF-268 CNS = test system: SF-268 CNS
T-47D breast = test system: T-47D breast
NCI-H460 lung = test system: NCI-H460 lung
SK-MEL-28 melanoma = test system: SK-MEL-28 melanoma
SK-MEL-5 melanoma = test system: SK-MEL-5 melanoma
786-0 renal = test system: 786-0 renal
OVCAR-4 ovarian = test system: OVCAR-4 ovarian
NCI/ADR-RES ovarian = test system: NCI/ADR-RES ovarian
SNB-19 CNS = test system: SNB-19 CNS
PC-3 prostate = test system: PC-3 prostate
NCI-H226 lung = test system: NCI-H226 lung
UACC-257 melanoma = test system: UACC-257 melanoma
OVCAR-3 ovarian = test system: OVCAR-3 ovarian
EKVX NSCLC = test system: EKVX NSCLC
NCI-H23 lung = test system: NCI-H23 lung
OVCAR-8 ovarian = test system: OVCAR-8 ovarian
A549 NSCLC = test system: A549 NSCLC
K-562 leukemia = test system: K-562 leukemia
HT29 colon = test system: HT29 colon
A498 renal = test system: A498 renal
SR leukemia = test system: SR leukemia
ACHN renal = test system: ACHN renal
TK-10 renal = test system: TK-10 renal
SK-OV-3 ovarian = test system: SK-OV-3 ovarian
HCT-116 colon = test system: HCT-116 colon
MALME-3M melanoma = test system: MALME-3M melanoma
CAKI-1 renal = test system: CAKI-1 renal
U251 CNS = test system: U251 CNS
UO-31 renal = test system: UO-31 renal
RPMI-8226 leukemia = test system: RPMI-8226 leukemia
NCI-H522 lung = test system: NCI-H522 lung
COLO 205 colon = test system: COLO 205 colon
SK-MEL-2 melanoma = test system: SK-MEL-2 melanoma
HS 578T breast = test system: HS 578T breast
UACC-62 melanoma = test system: UACC-62 melanoma
BT-549 breast = test system: BT-549 breast
SF-539 CNS = test system: SF-539 CNS
HOP-62 NSCLC = test system: HOP-62 NSCLC
RXF 393 renal = test system: RXF 393 renal
MCF7 breast = test system: MCF7 breast
MOLT-4 leukemia = test system: MOLT-4 leukemia
SNB-75 CNS = test system: SNB-75 CNS
MDA-MB-231 breast = test system: MDA-MB-231 breast
HCC-2998 colon = test system: HCC-2998 colon
M14 melanoma = test system: M14 melanoma
LOX IMVI melanoma = test system: LOX IMVI melanoma
KM12 colon = test system: KM12 colon
SN12C renal = test system: SN12C renal

Nc1nc(-c2ccc3c(c2)/C(=C\c2cc(Br)c(O)c(Br)c2)C(=O)N3)cs1
GI50 (MDA-MB-435): 4.68 µM
TGI (MDA-MB-435): 12 µM
GI50 (SF-295 CNS): 10.1 µM
TGI (SF-295 CNS): > 25 µM
GI50 (HCT-15 colon): > 20.2 µM
TGI (HCT-15 colon): > 25 µM
GI50 (OVCAR-5 ovarian): > 25 µM
TGI (OVCAR-5 ovarian): > 25 µM
GI50 (HL-60(TB) leukemia): 8.91 µM
TGI (HL-60(TB) leukemia): > 22.6 µM
GI50 (DU-145 prostate): 18.6 µM
TGI (DU-145 prostate): > 25 µM
GI50 (IGROV1 ovarian): > 25 µM
TGI (IGROV1 ovarian): > 25 µM
GI50 (SW-620 colon): 10.6 µM
TGI (SW-620 colon): > 25 µM
GI50 (CCRF-CEM leukemia): 9.36 µM
TGI (CCRF-CEM leukemia): > 25 µM
GI50 (HOP-92 NSCLC): 9.19 µM
TGI (HOP-92 NSCLC): > 25 µM
GI50 (SF-268 CNS): 16.3 µM
TGI (SF-268 CNS): > 25 µM
GI50 (T-47D breast): 15.1 µM
TGI (T-47D breast): > 25 µM
GI50 (NCI-H460 lung): 16.4 µM
TGI (NCI-H460 lung): > 25 µM
GI50 (SK-MEL-28 melanoma): 7.99 µM
TGI (SK-MEL-28 melanoma): > 25 µM
GI50 (SK-MEL-5 melanoma): 5.4 µM
TGI (SK-MEL-5 melanoma): 12.1 µM
GI50 (786-0 renal): 14.1 µM
TGI (786-0 renal): > 25 µM
GI50 (OVCAR-4 ovarian): > 25 µM
TGI (OVCAR-4 ovarian): > 25 µM
GI50 (NCI/ADR-RES ovarian): > 23.4 µM
TGI (NCI/ADR-RES ovarian): > 25 µM
GI50 (SNB-19 CNS): > 25 µM
TGI (SNB-19 CNS): > 25 µM
GI50 (PC-3 prostate): 13.6 µM
TGI (PC-3 prostate): > 25 µM
GI50 (NCI-H226 lung): > 25 µM
TGI (NCI-H226 lung): > 25 µM
GI50 (UACC-257 melanoma): 5.57 µM
TGI (UACC-257 melanoma): 14.4 µM
GI50 (OVCAR-3 ovarian): 8.14 µM
TGI (OVCAR-3 ovarian): 20.4 µM
GI50 (EKVX NSCLC): > 25 µM
TGI (EKVX NSCLC): > 25 µM
GI50 (NCI-H23 lung): 14.3 µM
TGI (NCI-H23 lung): > 25 µM
GI50 (OVCAR-8 ovarian): > 25 µM
TGI (OVCAR-8 ovarian): > 25 µM
GI50 (A549 NSCLC): > 25 µM
TGI (A549 NSCLC): > 25 µM
GI50 (K-562 leukemia): 10.6 µM
TGI (K-562 leukemia): > 25 µM
GI50 (HT29 colon): 11.2 µM
TGI (HT29 colon): > 25 µM
GI50 (A498 renal): 5.57 µM
TGI (A498 renal): 16.5 µM
GI50 (SR leukemia): 11.3 µM
TGI (SR leukemia): > 25 µM
GI50 (ACHN renal): > 23.9 µM
TGI (ACHN renal): > 25 µM
GI50 (TK-10 renal): > 25 µM
TGI (TK-10 renal): > 25 µM
GI50 (SK-OV-3 ovarian): 17.9 µM
TGI (SK-OV-3 ovarian): > 25 µM
GI50 (HCT-116 colon): 12.9 µM
TGI (HCT-116 colon): > 25 µM
GI50 (MALME-3M melanoma): 5.95 µM
TGI (MALME-3M melanoma): 17.4 µM
GI50 (CAKI-1 renal): > 25 µM
TGI (CAKI-1 renal): > 25 µM
GI50 (U251 CNS): 12.8 µM
TGI (U251 CNS): > 25 µM
GI50 (UO-31 renal): 19.1 µM
TGI (UO-31 renal): > 25 µM
GI50 (RPMI-8226 leukemia): 14.9 µM
TGI (RPMI-8226 leukemia): > 25 µM
GI50 (NCI-H522 lung): 8.12 µM
TGI (NCI-H522 lung): 19.4 µM
GI50 (COLO 205 colon): 15.1 µM
TGI (COLO 205 colon): > 25 µM
GI50 (SK-MEL-2 melanoma): 6.96 µM
TGI (SK-MEL-2 melanoma): > 17.6 µM
GI50 (HS 578T breast): 9.98 µM
TGI (HS 578T breast): > 25 µM
GI50 (UACC-62 melanoma): 6.89 µM
TGI (UACC-62 melanoma): 23.7 µM
GI50 (BT-549 breast): 11.4 µM
TGI (BT-549 breast): > 23.8 µM
GI50 (SF-539 CNS): 11.9 µM
TGI (SF-539 CNS): > 25 µM
GI50 (HOP-62 NSCLC): > 17 µM
TGI (HOP-62 NSCLC): > 25 µM
GI50 (RXF 393 renal): 12.5 µM
TGI (RXF 393 renal): > 25 µM
GI50 (MCF7 breast): 12.8 µM
TGI (MCF7 breast): > 25 µM
GI50 (MOLT-4 leukemia): 16.2 µM
TGI (MOLT-4 leukemia): > 25 µM
GI50 (SNB-75 CNS): 11.8 µM
TGI (SNB-75 CNS): > 25 µM
GI50 (MDA-MB-231 breast): 17.3 µM
TGI (MDA-MB-231 breast): > 25 µM
GI50 (HCC-2998 colon): 17.8 µM
TGI (HCC-2998 colon): > 25 µM
GI50 (M14 melanoma): 5.02 µM
TGI (M14 melanoma): 11.8 µM
GI50 (LOX IMVI melanoma): 7.84 µM
TGI (LOX IMVI melanoma): > 25 µM
GI50 (KM12 colon): 10.4 µM
TGI (KM12 colon): > 25 µM
GI50 (SN12C renal): > 25 µM
TGI (SN12C renal): > 25 µM
